For one assay, the target named is TNKS2 (Homo sapiens, UniProt Q9H2K2). The assay is described as follows: NAD+ quantification activity assay, TNKS2. Type of assay: biochemical. As to conditions: TNKS2 IC50, NAD+ 500 nM. As to the method: The activity assay used to measure the potency of the compounds against TNKS2 is based on the quantification of NAD^+[38]. The reactions were carried out in 96-well plate (Greiner bio-one, U-shaped) and the conditions were the same as reported earlier (Table S5)[24].
The compounds were stored in 100% DMSO at −20 °C. All the compounds were diluted in the TNKS2 assay buffer (50 mM Bis-Tris Propane, 0.5 mM TCEP, 0.01% Triton-100x). Control reactions were used to exclude the effect of compound fluorescence and quenching from the calculations. […] The pIC50 values were calculated and fitted with nonlinear regression using 4-parameters with GraphPad Prism (version 5.0 for windows).
(§1) Protein (nM) NAD+ (nM) Incubation Buffer
(§2) Kinase [ATP] Substrate Incubation Reaction buffer

A further assay addresses ARTD5/TNKS1 (Homo sapiens, UniProt O95271). The assay is described as follows: NAD+ quantification activity assay, TNKS1. The note with it: NAD+ 500 nM. Type of assay: biochemical. As to the method:
as §1, §2

For assay [1], the system named is Wnt/β-catenin signaling (TCF/LEF Reporter HEK293 Cell Line). The assay is described as follows: Wnt signaling TCF/LEF reporter assay in HEK293 cells. It counts as cell-based, human. As to conditions: Homo sapiens; for inhibition at 2 µM: HEK293, 2 µM compound, Wnt-reporter cell assay, read-out: Wnt (Inh.%, 2 µM). The procedure:
The Wnt assay was performed using a procedure modified from the BPS Bioscience protocol. Details are given in the Supplementary Methods. […]
The Wnt Signaling Pathway TCF/LEF Reporter HEK293 Cell Line (BPS Bioscience, catalog […]
Reporter HEK293 cells were grown at 37 °C with 5% CO2 using Dulbecco's Modified Eagle's Medium (DMEM, Sigma), supplemented with 10% of fetal bovine serum (Lonza), 1% non-essential amino acid (Sigma), 1X of penicillin and streptomycin (Sigma), and 400 µg/ml of Geneticin (Roche). Wnt-3a and L cells (ATCC) were cultured in Dulbecco’s modified Eagle’s medium supplemented with 10% fetal bovine serum, penicillin and streptomycin at 37 °C in a 5%
CO2. Wnt3a and control conditioned medium preparation has been described previously1. The Wnt assay was performed using a procedure modified from the BPS Bioscience protocol. 30,000 HEK293 cells/well in 40 µl of serum-free DMEM were plated on 96-well plate (white wells, clear […]
bottom, PerkinElmer). 10 µl of 50 mM LiCl in serum-free DMEM with 5x concentration of DMSO or tankyrase inhibitors was added. After 16 hours of incubation, 25 µl of Wnt3a or control conditioned medium supplemented with DMSO or tankyrase inhibitors was added on cells and cells were incubated for additional 24 hours. After the second incubation, the 96-well plates were balanced in room temperature for 30 minutes. Wnt3a induced luciferase activity was determined using ONE-Glo Luciferase Assay System (Promega) according to manufacturer’s protocol. […]
Difference Fourier method deriving the starting phases from 3U9H. The refinement of the structures was done with REFMAC5.5,6 Final manual building, analysis and visualization of the structures were made with Coot7 and PyMOL (www.pymol.org). All chemical structures were drawn with Marvin (Marvin 5.7.0 2011, ChemAxon, http://www.chemaxon.com). The docking studies were performed using GOLD software.8
In general terms: Reporter assays use an easily measured gene product as a stand-in for the process of interest.

The next assay has as its target ARTD1/PARP1 (Homo sapiens, UniProt P09874). Kind of assay: ARTD profiling, ARTD1.
A further assay has as its target ARTD2/PARP2 (Homo sapiens, UniProt Q9UGN5). The assay is described as follows: ARTD profiling, ARTD2.
On the set-up of assay [2]: method as in PMID 24130191. As to conditions: previous study; read-out: IC50 in cell-based assay; cited from earlier work.
A further assay deals with T1, ARTD3/PARP3 (Homo sapiens, UniProt Q9Y6F1).
T1 sequence (Q9Y6F1 1-533): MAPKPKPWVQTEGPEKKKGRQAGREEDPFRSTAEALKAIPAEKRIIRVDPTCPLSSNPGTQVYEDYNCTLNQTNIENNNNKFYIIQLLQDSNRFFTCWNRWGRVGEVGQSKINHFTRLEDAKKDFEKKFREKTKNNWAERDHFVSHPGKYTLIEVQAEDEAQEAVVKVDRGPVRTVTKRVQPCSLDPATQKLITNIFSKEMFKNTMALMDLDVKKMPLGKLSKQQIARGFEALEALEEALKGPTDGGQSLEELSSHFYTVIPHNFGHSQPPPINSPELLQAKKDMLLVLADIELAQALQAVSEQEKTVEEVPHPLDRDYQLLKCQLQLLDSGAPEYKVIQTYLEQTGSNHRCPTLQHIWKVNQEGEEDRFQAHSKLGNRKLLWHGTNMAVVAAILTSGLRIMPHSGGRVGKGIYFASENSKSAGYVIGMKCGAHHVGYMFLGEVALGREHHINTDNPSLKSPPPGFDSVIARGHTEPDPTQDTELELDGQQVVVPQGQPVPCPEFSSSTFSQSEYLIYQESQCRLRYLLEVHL
The assay is described as follows: ARTD profiling, ARTD3. Type of assay: biochemical. The note with it: NAD+ 500 nM. The procedure: as §1, §2

The target of a further assay is T2, ARTD4/PARP4 (Homo sapiens, UniProt Q9UKK3).
T2 sequence (Q9UKK3 369-573 limits assumed): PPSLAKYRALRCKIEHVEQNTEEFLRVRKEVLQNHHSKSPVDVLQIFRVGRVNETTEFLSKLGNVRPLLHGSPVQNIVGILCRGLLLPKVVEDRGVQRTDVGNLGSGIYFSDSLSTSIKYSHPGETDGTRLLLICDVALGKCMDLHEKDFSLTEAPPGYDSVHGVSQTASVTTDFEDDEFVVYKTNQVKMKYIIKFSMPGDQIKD
The assay is described as follows: ARTD profiling, ARTD4.

A further assay deals with T3, ARTD7/PARP15 (Homo sapiens, UniProt Q460N3).
T3 sequence (Q460N3 482-678 limits assumed): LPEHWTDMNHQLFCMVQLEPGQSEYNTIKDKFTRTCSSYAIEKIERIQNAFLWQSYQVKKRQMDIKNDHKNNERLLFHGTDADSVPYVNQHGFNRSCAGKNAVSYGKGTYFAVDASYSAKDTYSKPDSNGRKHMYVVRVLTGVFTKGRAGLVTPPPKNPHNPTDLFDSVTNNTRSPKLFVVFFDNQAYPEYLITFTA
The assay is described as follows: ARTD profiling, ARTD7.

The target of the next assay is ARTD8/PARP14 (Homo sapiens, UniProt Q460N5). The assay is described as follows: ARTD profiling, ARTD8.
For another assay, the target named is T4, ARTD10/PARP10 (Homo sapiens, UniProt Q53GL7).
T4 sequence (Q53GL7 806-1025 limits assumed): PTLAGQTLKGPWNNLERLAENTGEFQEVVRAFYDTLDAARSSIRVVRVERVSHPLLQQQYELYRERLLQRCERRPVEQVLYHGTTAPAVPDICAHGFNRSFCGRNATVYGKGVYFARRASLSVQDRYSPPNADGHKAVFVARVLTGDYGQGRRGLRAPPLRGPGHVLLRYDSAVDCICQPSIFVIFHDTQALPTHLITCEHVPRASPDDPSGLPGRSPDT
Kind of assay: ARTD profiling, ARTD10.

The next assay has as its target T5, ARTD12/PARP12 (Homo sapiens, UniProt Q9H0J9).
T5 sequence (Q9H0J9 484-698 limits assumed): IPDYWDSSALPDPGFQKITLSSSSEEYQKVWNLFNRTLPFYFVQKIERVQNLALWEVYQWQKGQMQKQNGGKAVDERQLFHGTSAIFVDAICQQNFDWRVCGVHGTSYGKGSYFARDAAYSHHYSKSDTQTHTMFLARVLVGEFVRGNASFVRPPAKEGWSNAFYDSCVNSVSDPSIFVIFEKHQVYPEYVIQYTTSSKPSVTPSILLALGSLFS
Kind of assay: ARTD profiling, ARTD12.

The target in another assay is T6, ARTD15/PARP16 (Homo sapiens, UniProt Q8N5Y8).
T6 sequence (Q8N5Y8 1-322): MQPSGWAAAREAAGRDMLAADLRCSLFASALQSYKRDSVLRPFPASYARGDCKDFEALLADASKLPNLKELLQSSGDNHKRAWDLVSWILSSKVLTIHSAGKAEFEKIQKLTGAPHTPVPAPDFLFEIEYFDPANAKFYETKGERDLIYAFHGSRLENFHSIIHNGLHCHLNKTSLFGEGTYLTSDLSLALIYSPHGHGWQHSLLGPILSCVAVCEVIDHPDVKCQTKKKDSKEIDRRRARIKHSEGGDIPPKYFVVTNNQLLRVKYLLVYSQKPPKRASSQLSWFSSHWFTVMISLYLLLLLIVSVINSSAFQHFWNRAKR
Kind of assay: ARTD profiling, ARTD15.

Sequence of ARTD5/TNKS1 (O95271 1112-1317): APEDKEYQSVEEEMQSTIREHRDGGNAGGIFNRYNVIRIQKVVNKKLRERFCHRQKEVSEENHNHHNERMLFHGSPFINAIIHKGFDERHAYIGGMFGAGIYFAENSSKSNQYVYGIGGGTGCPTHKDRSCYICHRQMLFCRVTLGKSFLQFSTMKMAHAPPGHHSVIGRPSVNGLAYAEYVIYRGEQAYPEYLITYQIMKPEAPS
Sequence of ARTD1/PARP1 (P09874 whole entry): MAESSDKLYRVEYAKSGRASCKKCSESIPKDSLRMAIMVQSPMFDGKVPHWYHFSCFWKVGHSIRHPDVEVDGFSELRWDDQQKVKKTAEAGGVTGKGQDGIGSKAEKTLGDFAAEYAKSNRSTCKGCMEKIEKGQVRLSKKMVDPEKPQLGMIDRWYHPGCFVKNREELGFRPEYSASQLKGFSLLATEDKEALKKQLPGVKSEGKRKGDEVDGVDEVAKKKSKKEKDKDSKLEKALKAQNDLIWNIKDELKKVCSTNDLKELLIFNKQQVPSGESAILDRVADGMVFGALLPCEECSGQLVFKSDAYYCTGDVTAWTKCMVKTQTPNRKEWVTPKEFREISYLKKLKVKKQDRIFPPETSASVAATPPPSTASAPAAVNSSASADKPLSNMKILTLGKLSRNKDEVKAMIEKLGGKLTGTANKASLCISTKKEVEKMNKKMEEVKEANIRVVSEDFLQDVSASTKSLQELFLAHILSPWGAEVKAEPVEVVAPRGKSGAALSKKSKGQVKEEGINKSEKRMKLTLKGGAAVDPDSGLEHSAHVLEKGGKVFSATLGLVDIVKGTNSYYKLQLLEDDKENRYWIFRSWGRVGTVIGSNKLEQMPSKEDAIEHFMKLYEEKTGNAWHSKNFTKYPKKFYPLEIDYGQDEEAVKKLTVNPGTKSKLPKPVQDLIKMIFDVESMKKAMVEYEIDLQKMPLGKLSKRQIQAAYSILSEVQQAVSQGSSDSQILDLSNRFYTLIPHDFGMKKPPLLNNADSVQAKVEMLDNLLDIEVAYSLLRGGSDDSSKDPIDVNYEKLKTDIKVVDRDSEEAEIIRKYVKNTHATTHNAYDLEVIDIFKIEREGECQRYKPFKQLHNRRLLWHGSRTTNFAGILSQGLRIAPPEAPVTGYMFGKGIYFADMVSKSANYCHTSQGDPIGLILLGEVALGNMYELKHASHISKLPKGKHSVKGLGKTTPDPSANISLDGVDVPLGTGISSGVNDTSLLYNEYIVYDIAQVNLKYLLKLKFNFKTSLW
Sequence of ARTD2/PARP2 (Q9UGN5 whole entry): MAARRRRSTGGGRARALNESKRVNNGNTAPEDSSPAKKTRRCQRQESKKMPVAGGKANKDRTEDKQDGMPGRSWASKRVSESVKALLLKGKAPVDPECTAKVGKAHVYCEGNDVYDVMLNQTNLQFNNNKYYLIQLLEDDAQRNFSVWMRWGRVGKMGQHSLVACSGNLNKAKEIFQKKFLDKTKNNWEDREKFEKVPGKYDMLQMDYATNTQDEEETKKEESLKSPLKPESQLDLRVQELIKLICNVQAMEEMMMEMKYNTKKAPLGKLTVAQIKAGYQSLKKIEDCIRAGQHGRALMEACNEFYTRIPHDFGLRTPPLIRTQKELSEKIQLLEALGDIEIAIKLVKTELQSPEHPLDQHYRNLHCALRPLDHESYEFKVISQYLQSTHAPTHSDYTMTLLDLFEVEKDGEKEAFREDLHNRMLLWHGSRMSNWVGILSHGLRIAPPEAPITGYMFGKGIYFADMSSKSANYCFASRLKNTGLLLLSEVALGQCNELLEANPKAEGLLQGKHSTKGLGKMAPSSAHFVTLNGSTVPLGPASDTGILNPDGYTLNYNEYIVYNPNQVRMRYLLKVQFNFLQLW
Sequence of TNKS2 (Q9H2K2 959-1164): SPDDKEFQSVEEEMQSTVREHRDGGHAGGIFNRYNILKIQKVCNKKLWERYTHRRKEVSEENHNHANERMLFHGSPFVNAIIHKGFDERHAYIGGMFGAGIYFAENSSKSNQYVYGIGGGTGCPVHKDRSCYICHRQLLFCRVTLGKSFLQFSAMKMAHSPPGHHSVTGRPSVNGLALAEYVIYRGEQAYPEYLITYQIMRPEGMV
Sequence of ARTD8/PARP14 (Q460N5 whole entry): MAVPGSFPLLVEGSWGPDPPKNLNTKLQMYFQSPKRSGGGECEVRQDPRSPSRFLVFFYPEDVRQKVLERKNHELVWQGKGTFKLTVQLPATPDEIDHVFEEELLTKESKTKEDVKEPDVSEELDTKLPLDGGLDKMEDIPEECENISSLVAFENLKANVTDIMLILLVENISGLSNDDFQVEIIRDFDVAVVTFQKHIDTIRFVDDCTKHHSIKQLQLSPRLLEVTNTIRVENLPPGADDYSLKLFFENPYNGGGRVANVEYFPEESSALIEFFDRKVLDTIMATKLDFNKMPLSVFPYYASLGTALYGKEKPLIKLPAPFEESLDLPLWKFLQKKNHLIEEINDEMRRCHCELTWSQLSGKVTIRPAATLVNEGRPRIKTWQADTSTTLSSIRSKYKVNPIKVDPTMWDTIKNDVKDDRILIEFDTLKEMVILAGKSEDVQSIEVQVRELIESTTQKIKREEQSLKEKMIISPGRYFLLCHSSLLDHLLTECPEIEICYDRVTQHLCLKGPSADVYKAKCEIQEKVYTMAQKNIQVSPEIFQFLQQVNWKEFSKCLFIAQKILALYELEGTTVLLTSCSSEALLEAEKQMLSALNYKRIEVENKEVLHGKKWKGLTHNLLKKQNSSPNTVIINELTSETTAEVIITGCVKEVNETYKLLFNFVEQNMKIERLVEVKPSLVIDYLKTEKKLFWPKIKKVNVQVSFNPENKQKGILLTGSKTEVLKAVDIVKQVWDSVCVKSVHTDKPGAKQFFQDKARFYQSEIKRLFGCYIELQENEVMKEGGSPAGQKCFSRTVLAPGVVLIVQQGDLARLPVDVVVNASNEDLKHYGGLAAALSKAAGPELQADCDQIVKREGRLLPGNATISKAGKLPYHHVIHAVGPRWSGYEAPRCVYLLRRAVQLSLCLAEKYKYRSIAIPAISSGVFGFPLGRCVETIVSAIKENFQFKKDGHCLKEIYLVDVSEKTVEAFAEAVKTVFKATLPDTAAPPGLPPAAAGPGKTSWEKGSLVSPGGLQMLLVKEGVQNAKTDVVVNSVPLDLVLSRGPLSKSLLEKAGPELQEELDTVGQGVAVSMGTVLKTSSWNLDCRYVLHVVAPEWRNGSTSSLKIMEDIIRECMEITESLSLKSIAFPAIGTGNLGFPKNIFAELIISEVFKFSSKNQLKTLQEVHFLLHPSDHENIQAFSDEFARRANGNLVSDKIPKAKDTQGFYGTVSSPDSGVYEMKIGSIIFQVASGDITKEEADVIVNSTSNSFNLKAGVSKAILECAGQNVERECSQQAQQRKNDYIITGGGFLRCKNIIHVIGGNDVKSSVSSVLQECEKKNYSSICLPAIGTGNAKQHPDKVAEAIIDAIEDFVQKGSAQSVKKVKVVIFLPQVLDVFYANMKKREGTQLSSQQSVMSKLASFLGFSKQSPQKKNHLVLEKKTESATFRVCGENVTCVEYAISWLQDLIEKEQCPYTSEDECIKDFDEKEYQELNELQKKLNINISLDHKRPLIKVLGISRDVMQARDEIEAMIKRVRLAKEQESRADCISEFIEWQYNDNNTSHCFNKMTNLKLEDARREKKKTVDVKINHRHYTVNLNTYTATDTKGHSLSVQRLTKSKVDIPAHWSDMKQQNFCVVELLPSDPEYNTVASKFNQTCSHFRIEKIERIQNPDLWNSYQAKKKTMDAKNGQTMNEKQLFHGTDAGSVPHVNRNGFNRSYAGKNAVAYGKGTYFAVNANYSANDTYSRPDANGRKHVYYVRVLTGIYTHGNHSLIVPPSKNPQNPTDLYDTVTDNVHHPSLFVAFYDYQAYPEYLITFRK

Broadly, the IC50 is the concentration at which inhibition is half-maximal. As to `CC1(c2ccc(-c3nc4ccccc4c(=O)[nH]3)cc2)CNC(=O)N1` (centres unmarked) [Compound 9], the IC50 was determined as 10 nM on TNKS2, 10 nM on ARTD5/TNKS1, 1000 nM on ARTD1/PARP1 and 870 nM on ARTD2/PARP2. The inhibition at 2 µM in assay [1] turned out to be 72%.

Regarding `CC1(c2ccc(-c3nc4ccccc4c(=O)[nH]3)cc2)NC(=O)NC1=O` (centres unmarked) [Compound 2], the half-inhibitory concentration (IC50) was 3.3 nM against TNKS2; 5.9 nM against ARTD5/TNKS1; around 1000 nM in assay [2]; 374 nM against ARTD1/PARP1; 340 nM on ARTD2/PARP2. The inhibition at 2 µM in assay [1] worked out at 68%.

For `CN(CCO)c1ccc(-c2nc3ccccc3c(=O)[nH]2)cc1` [Compound 33], the IC50 amounted to 16 nM against TNKS2; 77 nM at ARTD5/TNKS1; 3800 nM against ARTD3/PARP3; 1700 nM against ARTD1/PARP1; 860 nM against ARTD2/PARP2; 2000 nM on ARTD4/PARP4. Moreover, the IC50 against ARTD7/PARP15 was above 10000 nM; at ARTD8/PARP14, 3200 nM; on ARTD10/PARP10, 3100 nM; against ARTD12/PARP12, above 10000 nM; on ARTD15/PARP16, above 10000 nM. In addition, in [1] (HEK293, 1 µM compound, TCF/LEF reporter HEK293), the inhibition at 1 µM came out at 20%.

(Values after PMC5785997, “2-Phenylquinazolinones as dual-activity tankyrase-kinase inhibitors” (Scientific Reports, 2018).)
